In patent US20120295907A1, “INSECTICIDAL COMPOUNDS” (SYNGENTA CROP PROTECTION, LLC, priority 2009, published 2012):

Key:
Format in all cases: in vivo
[1] = system: Spodoptera littoralis; experiment: Spodoptera littoralis (Egyptian Cotton Leafworm) cotton leaf disc spray test; conditions: foliar, 72 h, 200 ppm spray on cotton leaf discs, L1 larvae, mortality, feeding behavior, growth regulation 3 DAT
[2] = system: Heliothis virescens; experiment: Heliothis virescens (Tobacco Budworm) egg test on artificial diet; conditions: 96 h, 200 ppm (concentration in well 18 ppm), eggs 0-24 h old on artificial diet, 4 days, egg mortality, larval mortality, growth regulation
[3] = system: Plutella xylostella; experiment: Plutella xylostella (Diamond Back Moth) artificial diet MTP test; conditions: 144 h, 200 ppm (concentration in well 18 ppm), L2 larvae, 6 days, larval mortality, growth regulation
[4] = system: Diabrotica balteata; experiment: Diabrotica balteata (Corn Root Worm) artificial diet MTP test; conditions: 120 h, 200 ppm (concentration in well 18 ppm), L2 larvae, 5 days, larval mortality, growth regulation
[5] = system: Tetranychus urticae; experiment: Tetranychus urticae (Two-Spotted Spider Mite) bean leaf disc spray test; conditions: foliar, 192 h, 200 ppm spray on bean leaf discs, mite populations of mixed ages, 8 days, egg, larval and adult mortality, read-out: control of Tetranychus urticae
[6] = system: Myzus persicae; experiment: Myzus persicae (Green Peach Aphid) sunflower leaf disc spray test; conditions: foliar, 144 h, 200 ppm spray on sunflower leaf discs, aphid population of mixed ages, 6 DAT, mortality
[7] = system: Thrips tabaci; experiment: Thrips tabaci (Onion Thrips) sunflower leaf disc spray test; conditions: foliar, 168 h, 200 ppm spray on sunflower leaf discs, population of mixed ages, 7 days, mortality

Measured: pest or weed control at 200 ppm

COc1c(NC(=O)c2c(F)cc(F)cc2F)cccc1C(=O)Nc1c(Cl)cc(C(F)(C(F)(F)F)C(F)(F)F)cc1Br [G3]
not listed: [7]
≥ 80%: all other assays above

COc1c(NC(=O)c2ccc(F)cc2Cl)cccc1C(=O)Nc1c(Cl)cc(C(F)(C(F)(F)F)C(F)(F)F)cc1Br [G5]
not listed: [7]
≥ 80%: all other assays above

COc1c(NC(=O)c2c(F)cc(C#N)cc2F)cccc1C(=O)Nc1c(Cl)cc(C(F)(C(F)(F)F)C(F)(F)F)cc1Br [G4]
not listed: [7]
≥ 80%: all other assays above

COc1ccc(C(=O)Nc2cccc(C(=O)Nc3c(Cl)cc(C(F)(C(F)(F)F)C(F)(F)C(F)(F)F)cc3Br)c2OC)cc1 (stereo not drawn) [B28]
not listed: [2]
≥ 80%: all other assays above

COc1c(NC(=O)c2ccc([N+](=O)[O-])cc2)cccc1C(=O)Nc1c(Cl)cc(C(F)(C(F)(F)F)C(F)(F)C(F)(F)F)cc1Br (stereo not drawn) [B7]
not listed: [4] | [7]
≥ 80%: all other assays above

COc1c(NC(=O)c2ccc(C#N)cc2)cccc1C(=O)Nc1c(Cl)cc(C(F)(C(F)(F)F)C(F)(F)C(F)(F)F)cc1Br (stereo not drawn) [B6]
not listed: [4] | [7]
≥ 80%: all other assays above

COc1c(NC(=O)c2csnc2C)cccc1C(=O)Nc1c(Cl)cc(C(F)(C(F)(F)F)C(F)(F)C(F)(F)F)cc1Br (stereo not drawn) [B98]
not listed: [7]
≥ 80%: all other assays above

COc1c(NC(=O)c2ccncc2)cccc1C(=O)Nc1c(Cl)cc(C(F)(C(F)(F)F)C(F)(F)C(F)(F)F)cc1Br (stereo not drawn) [B54]
not listed: [2]
≥ 80%: all other assays above

CCc1cc(C(F)(C(F)(F)F)C(F)(F)C(F)(F)F)cc(C)c1NC(=O)c1cccc(NC(=O)c2ccc(F)cc2Cl)c1OC (stereo not drawn) [A3, N-[2-ethyl-4-(1,2,2,3,3,3-hexafluoro-1-trifluoromethylpropyl)-6-methylphenyl]-3-(4-fluoro-2-chlorobenzoylamino)-2-methoxybenzamide]
not listed: [2] | [3]
≥ 80%: all other assays above

CCc1cc(C(F)(C(F)(F)F)C(F)(F)C(F)(F)F)cc(C)c1NC(=O)c1cccc(NC(=O)c2ccc([N+](=O)[O-])cc2C)c1OC (stereo not drawn) [A22]
not listed: [2]
≥ 80%: all other assays above

COc1c(NC(=O)c2ccccc2Cl)cccc1C(=O)Nc1c(Cl)cc(C(F)(C(F)(F)F)C(F)(F)C(F)(F)F)cc1Br (stereo not drawn) [B5]
not listed: [7]
≥ 80%: all other assays above
